Common to all, as to type: biochemical
The target of experiment [1] is CDK4/Cyclin D1 (Homo sapiens (Human), UniProt P11802). The experiment in a line: CDK4/Cyclin D1 CHEF Assay. To be noted: AQT; read-out: CDK4/CyclinD1 AQT IC50. An excerpt: CDK4/Cyclin D1 CHEF Assay
The purpose of CDK4/Cyclin Dl assay is to evaluate the inhibition (% inhibition and IC50 values) of small molecule inhibitors by using a Chelation-Enhance Fluorescence (CHEF) assay. In a CHEF assay, phosphorylation of a peptide substrate results in proportional increase in fluorescence. CHEF kinase assay use peptide substrates containing a synthetic alpha-amino acid with a side chain bearing an 8-hydroxyquinoline derivative (sulfonamido-oxide, Sox). Upon phosphorylation of a nearby serine, threonine or tyrosine and in the presence of Mg(II), the spectral properties of the Sox residue are altered, emitting 485 nm wavelength light when excited with a 360 nm wavelength light source. CDK4/Cyclin D1 catalyzes the phosphoryl transfer to the SOX-labeled substrate peptide AQT0258 from Assayquant Technologies. […] The reaction was initiated with the addition of substrate solution, following a 30-minute pre-incubation of enzyme and inhibitor at 22° C. in the reaction mix. Reactions were allowed to proceed for 3 hrs at 22° C., followed by fluorescence read of the reaction. The IC50 determinations were made from a plot of the fractional velocity as a function of inhibitor concentration fit to the 4 parameters IC50 equation.

In experiment [2] the target is CDK1/Cyclin B1 (Homo sapiens (Human), UniProt P06493). In words: CDK1/Cyclin B1 ADP-Glo Kinase Assay. Here is the method:
CDK1/Cyclin B1 ADP-Glo Kinase Assay
(§1) The purpose of CDK1/Cyclin Bi assay is to evaluate the inhibition (% inhibition and IC50 values) of small molecule inhibitors by using a Luminescent based ADP-Glo assay. CDK1/Cyclin B1 catalyzes the production of ADP from ATP. ADP-Glo assay monitors ADP producing biochemical reactions. ADP-Glo is performed in 2 steps upon completion of kinase reaction: a combined termination of kinase reaction and depletion of remaining ATP in the first step, and conversion of generated ADP to ATP and the newly produced ATP to light output using luciferase/luciferin reaction in the second step. The luminescent signal generated is proportional to the ADP concentration produced and is correlated with the kinase activity. CDK1/Cyclin B1 was purchased from Carna (Cat 04-102). […] The assay was initiated with the addition of ATP-containing substrate solution, following a 30-minute pre-incubation of enzyme and inhibitor at room temperature in the reaction mixture. The reaction was stopped after 90 minutes at room temperature by the addition of 10 μL of ADP-GLO Reagent. After a 90 minute incubation, 20 μL of Kinase Detection Reagent was added. Samples were incubated for 40 minutes, after which plate well luminescence was measured on a Envision microplate reader. The IC50 determinations were made from a plot of the fractional velocity as a function of inhibitor concentration fit to the 4 parameters IC50 equation.
For orientation: ADP-Glo first removes unused ATP, then detects ADP through luciferase.

Experiment [3] concerns the target CDK6/Cyclin D3 (Homo sapiens (Human), UniProt Q00534). The experiment in a line: CDK6/Cyclin D3 ADP-Glo Kinase Assay. The following applies: read-out: CDK6/CyclinD3 IC50. Here is the method:
CDK6/Cyclin D3 ADP-Glo Kinase Assay
as §1, with “of the CDK6/Cyclin D3” for “of CDK1/Cyclin Bi”, “values) in the presence” for “values)”, “assay. CDK6/Cyclin D3” for “assay. CDK1/Cyclin B1”, “activity. CDK6/Cychin D3” for “activity. CDK1/Cyclin B1”, “from Carna.” for “from Carna (Cat 04-102).”, “a 90-minute” for “a 90 minute”

Chain of CDK1/Cyclin B1 (P06493 whole entry): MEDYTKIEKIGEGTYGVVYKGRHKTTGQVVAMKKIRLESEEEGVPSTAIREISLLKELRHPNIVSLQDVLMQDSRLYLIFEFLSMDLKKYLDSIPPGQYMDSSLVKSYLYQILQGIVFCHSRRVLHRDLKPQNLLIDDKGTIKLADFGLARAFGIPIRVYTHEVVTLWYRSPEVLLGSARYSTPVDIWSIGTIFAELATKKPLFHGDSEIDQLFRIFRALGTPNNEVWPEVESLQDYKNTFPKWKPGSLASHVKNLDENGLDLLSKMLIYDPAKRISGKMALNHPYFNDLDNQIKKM
Chain of CDK1/Cyclin B1 (P14635 whole entry partner): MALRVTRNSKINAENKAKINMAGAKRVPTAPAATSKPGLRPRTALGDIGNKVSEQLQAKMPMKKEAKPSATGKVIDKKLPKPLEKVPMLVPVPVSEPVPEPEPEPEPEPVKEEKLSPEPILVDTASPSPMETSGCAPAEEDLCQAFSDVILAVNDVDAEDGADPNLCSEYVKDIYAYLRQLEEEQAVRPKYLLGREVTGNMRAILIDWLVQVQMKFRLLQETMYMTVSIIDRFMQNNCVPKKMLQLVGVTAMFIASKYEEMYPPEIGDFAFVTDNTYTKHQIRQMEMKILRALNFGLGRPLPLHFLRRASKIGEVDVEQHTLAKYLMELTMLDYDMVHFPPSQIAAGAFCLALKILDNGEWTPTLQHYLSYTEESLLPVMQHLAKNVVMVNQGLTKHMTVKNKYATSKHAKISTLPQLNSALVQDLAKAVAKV
Chain of CDK6/Cyclin D3 (Q00534 whole entry): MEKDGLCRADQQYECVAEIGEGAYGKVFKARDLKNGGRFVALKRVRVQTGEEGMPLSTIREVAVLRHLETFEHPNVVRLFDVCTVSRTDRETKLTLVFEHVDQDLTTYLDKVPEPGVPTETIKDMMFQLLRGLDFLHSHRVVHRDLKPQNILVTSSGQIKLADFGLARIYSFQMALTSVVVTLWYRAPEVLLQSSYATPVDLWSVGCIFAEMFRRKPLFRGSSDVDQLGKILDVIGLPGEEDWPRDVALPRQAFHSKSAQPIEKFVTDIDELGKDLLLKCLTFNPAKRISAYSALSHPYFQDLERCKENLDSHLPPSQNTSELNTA
Chain of CDK6/Cyclin D3 (P30281 whole entry partner): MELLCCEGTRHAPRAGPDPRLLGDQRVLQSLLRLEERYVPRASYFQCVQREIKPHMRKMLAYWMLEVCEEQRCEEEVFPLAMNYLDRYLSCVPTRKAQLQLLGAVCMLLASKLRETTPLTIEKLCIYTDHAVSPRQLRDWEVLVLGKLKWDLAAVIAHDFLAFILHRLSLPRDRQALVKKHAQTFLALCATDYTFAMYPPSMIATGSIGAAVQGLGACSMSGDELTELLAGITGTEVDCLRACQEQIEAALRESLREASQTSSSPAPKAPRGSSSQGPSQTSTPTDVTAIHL
Chain of CDK4/Cyclin D1 (P11802 whole entry, species assumed): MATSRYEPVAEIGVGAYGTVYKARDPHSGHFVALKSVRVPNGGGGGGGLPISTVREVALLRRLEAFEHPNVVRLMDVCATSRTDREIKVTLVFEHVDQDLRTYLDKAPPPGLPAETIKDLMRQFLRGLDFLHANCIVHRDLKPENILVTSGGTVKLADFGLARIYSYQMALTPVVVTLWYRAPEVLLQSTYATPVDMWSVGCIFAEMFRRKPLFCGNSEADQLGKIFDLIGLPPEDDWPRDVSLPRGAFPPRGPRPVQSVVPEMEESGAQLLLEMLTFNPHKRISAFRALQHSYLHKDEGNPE
Chain of CDK4/Cyclin D1 (P24385 whole entry partner, species assumed): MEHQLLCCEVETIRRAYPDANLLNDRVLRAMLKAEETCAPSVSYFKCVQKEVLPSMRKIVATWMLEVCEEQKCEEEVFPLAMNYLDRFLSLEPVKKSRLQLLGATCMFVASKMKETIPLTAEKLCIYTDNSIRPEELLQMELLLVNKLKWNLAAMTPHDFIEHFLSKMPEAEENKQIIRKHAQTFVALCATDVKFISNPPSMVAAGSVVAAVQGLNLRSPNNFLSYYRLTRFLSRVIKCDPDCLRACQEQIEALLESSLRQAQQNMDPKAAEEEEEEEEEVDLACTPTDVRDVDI

Take `Cc1cc2cnc(NC3CCN(S(=O)(=O)C4CC4)CC3)nc2c(N2CC3(CCNC3)C2)n1` [Compound 25, N-(1-(cyclopropylsulfonyl)piperidin-4-yl)-6-methyl-8-(2,6-diazaspiro[3.4]octan-2-yl) pyrido[3,4-d]pyrimidin-2-amine]: the IC50 is under 200 nM in experiment [1], 200 to 500 nM in experiment [2] and under 200 nM in experiment [3].
For the compound `Cc1cc2cnc(Nc3cc4c(cc3F)CN(S(C)(=O)=O)C4)nc2c(N2CC3(CCNC3)C2)n1` [Compound 39, N-(6-fluoro-2-(methylsulfonyl)isoindolin-5-yl)-6-methyl-8-(2,6-diazaspiro [3.4]octan-2-yl)pyrido[3,4-d]pyrimidin-2-amine], the IC50 is 200 to 500 nM in experiment [1], over 2000 nM in experiment [2] and over 2000 nM in experiment [3].
Turning to `Cc1cc2cnc(N[C@H]3CC[C@H](CN(C)C)CC3)nc2c(N2CCC3(C2)CC3(F)F)n1` (stereo partly shown) [Compound 40, 8-(1,1-difluoro-5-azaspiro[2.4]heptan-5-yl)-N-((1r,4r)-4-((dimethylamino)methyl)cyclohexyl)-6-methylpyrido[3,4-d]pyrimidin-2-amine], the IC50 in experiment [1] is under 200 nM; in experiment [2], over 2000 nM; in experiment [3], under 200 nM.
Take `Cc1cc2cnc(Nc3ccc4c(c3)CN(C)C4)nc2c(N2CC3(C2)CN(C2CC2)C3)n1` [Compound 44, 8-(6-cyclopropyl-2,6-diazaspiro[3.3]heptan-2-yl)-6-methyl-N-(2-methylisoindolin-5-yl)pyrido[3,4-d]pyrimidin-2-amine]: the IC50 in experiment [1] is 200 to 500 nM; in experiment [2], over 2000 nM.
As to `Cc1cc2cnc(N[C@H]3CC[C@@H](CN(C)C)CC3)nc2c(N2CCC3(C2)CC3(F)F)n1` (stereo partly shown) [Compound 45, 8-(1,1-difluoro-5-azaspiro[2.4]heptan-5-yl)-N-((1s,4s)-4-((dimethylamino)methyl)cyclohexyl)-6-methylpyrido[3,4-d]pyrimidin-2-amine], the results for the IC50 in experiment [1] and in experiment [2] were under 200 nM and over 2000 nM, respectively.
Take `Cc1cc2cnc(NC3CCN(S(C)(=O)=O)CC3)nc2c(N2CCC3(CCC3(F)F)C2)n1` (stereo not shown) [Compound 52, 8-(1,1-difluoro-6-azaspiro[3.4]octan-6-yl)-6-methyl-N-(1-(methylsulfonyl)piperidin-4-yl)pyrido[3,4-d]pyrimidin-2-amine]: the IC50 in experiment [1], in experiment [2] and in experiment [3] was under 200 nM each time.
Take `Cc1cc2cnc(NC3CCN(S(C)(=O)=O)CC3)nc2c(N2CCC3(C2)CC(F)(F)C3)n1` [Compound 53, 8-(2,2-difluoro-6-azaspiro[3.4]octan-6-yl)-6-methyl-N-(1-(methylsulfonyl)piperidin-4-yl)pyrido[3,4-d]pyrimidin-2-amine]: the IC50 in experiment [1] was under 200 nM; in experiment [2], over 2000 nM; in experiment [3], under 200 nM.
As to `Cc1cc2cnc(NC3CCN(S(C)(=O)=O)CC3)nc2c(N2CCC3(CC3)C2)n1` [Compound 54, 6-methyl-N-(1-(methylsulfonyl)piperidin-4-yl)-8-(5-azaspiro[2.4]heptan-5-yl)pyrido[3,4-d]pyrimidin-2-amine], the IC50 in experiment [1], in experiment [2] and in experiment [3] was under 200 nM each time.
For `O=S(=O)(CC1CCC1)N1CCC(Nc2ncc3cc(C(F)F)nc(N4CC5(CCNC5)C4)c3n2)CC1` [Compound 55], the IC50 in experiment [1], in experiment [2] and in experiment [3] was under 200 nM each time.
Consider `Cc1cc2cnc(NC3CCN(S(=O)(=O)C4CC4)CC3)nc2c(N2CC(O)(C3CC3)C2)n1` [Compound 56, 3-cyclopropyl-1-(2-((1-(cyclopropylsulfonyl)piperidin-4-yl)amino)-6-methylpyrido[3,4-d]pyrimidin-8-yl)azetidin-3-ol], for which the IC50 in experiment [1], in experiment [2] and in experiment [3] was under 200 nM in each case.
Regarding `Cc1cc2cnc(NC3CCN(S(=O)(=O)C4CC4)CC3)nc2c(N2CCC(OC(F)F)C2)n1` (stereo not shown) [Compound 58, N-(1-(cyclopropylsulfonyl)piperidin-4-yl)-8-(3-(difluoromethoxy)pyrrolidin-1-yl)-6-methylpyrido[3,4-d]pyrimidin-2-amine], the IC50 in experiment [1], in experiment [2] and in experiment [3] was under 200 nM throughout.
For the compound `CS(=O)(=O)N1CCC(Nc2ncc3cc(C4CC4)nc(N4CC(F)(F)C5(CNC5)C4)c3n2)CC1` [Compound 60, 6-cyclopropyl-8-(8,8-difluoro-2,6-diazaspiro[3.4]octan-6-yl)-N-(1-(methylsulfonyl)piperidin-4-yl)pyrido[3,4-d]pyrimidin-2-amine], the IC50 in experiment [1], in experiment [2] and in experiment [3] was under 200 nM throughout.
As for `Cc1cc2cnc(NC3CCN(S(=O)(=O)C4CC4)CC3)nc2c(N2CC3(CCNCC3(F)F)C2)n1` [Compound 61, N-(1-(cyclopropylsulfonyl)piperidin-4-yl)-8-(5,5-difluoro-2,7-diazaspiro[3.5]nonan-2-yl)-6-methylpyrido[3,4-d]pyrimidin-2-amine], the IC50 in experiment [1], in experiment [2] and in experiment [3] was under 200 nM in each case.
As to `Cc1cc2cnc(NC3CCN(S(=O)(=O)C4CC4)CC3)nc2c(N2CC(C#N)(CCF)C2)n1` [Compound 68, 1-(2-((1-(cyclopropylsulfonyl)piperidin-4-yl)amino)-6-methylpyrido[3,4-d]pyrimidin-8-yl)-3-(2-fluoroethyl) azetidine-3-carbonitrile], the figures for the IC50 in experiment [1] and in experiment [2] were 200 to 500 nM and over 2000 nM, respectively.
Consider `Cc1cc2cnc(NC3CCN(S(C)(=O)=O)CC3)nc2c(C2CC(C)(CO)C2)n1` (stereo not shown) [Compound 69, (1-methyl-3-(6-methyl-2-((1-(methylsulfonyl)piperidin-4-yl)amino)pyrido[3,4-d]pyrimidin-8-yl)cyclobutyl) methanol], for which the IC50 in experiment [1] and in experiment [3] was under 200 nM throughout.
Consider `Cc1cc2cnc(NC3CCN(S(=O)(=O)C4CC4)CC3)nc2c(N2CC(N3CC(F)C3)C2)n1` [Compound 72, N-(1-(cyclopropylsulfonyl)piperidin-4-yl)-8-(3-fluoro-[1,3′-biazetidin]-1′-yl)-6-methylpyrido[3,4-d]pyrimidin-2-amine], for which the IC50 in experiment [1] and in experiment [3] was 200 to 500 nM each time.
`Cc1cc2cnc(NC3CCN(S(C)(=O)=O)CC3)nc2c(N2CC3(CC(O)C3)C2)n1` [Compound 73, 2-(6-methyl-2-((1-(methylsulfonyl)piperidin-4-yl)amino)pyrido[3,4-d]pyrimidin-8-yl)-2-azaspiro[3.3]heptan-6-ol]: the values for the IC50 in experiment [1] and in experiment [3] were under 200 nM and 200 to 500 nM, respectively.
Turning to `Cc1cc2cnc(NC3CCN(S(=O)(=O)C4CC4)CC3)nc2c(N2CC(CS(C)(=O)=O)C2)n1` [Compound 74, N-(1-(cyclopropylsulfonyl)piperidin-4-yl)-6-methyl-8-(3-((methylsulfonyl)methyl)azetidin-1-yl)pyrido[3,4-d]pyrimidin-2-amine], the IC50 in experiment [1] and in experiment [3] was 200 to 500 nM in each case.
As to `COCCN1CC2(CC(c3nc(C4CC4)cc4cnc(NC5CCN(S(=O)(=O)CC6CCC6)CC5)nc34)C2)C1` [Compound 80, N-(1-((cyclobutylmethyl)sulfonyl)piperidin-4-yl)-6-cyclopropyl-8-(2-(2-methoxyethyl)-2-azaspiro[3.3]heptan-6-yl)pyrido[3,4-d]pyrimidin-2-amine], the IC50 in experiment [1] and in experiment [3] was under 200 nM each time.
